Values of other authors, collected in patent US10624856B2, “Non-extractable oral solid dosage forms” (Dharma Laboratories LLC, priority 2018, dated 2020).

How the values were obtained:
[1] = in vivo

Oc1ccc2c3c1O[C@H]1[C@H](O)CC[C@@]4(O)[C@@H](C2)N(CC2CC2)CC[C@]314 [6-beta-naltrexol]
half-life [1]: 16 h

C=CCN1CC[C@]23c4c5ccc(O)c4O[C@H]2C(=O)CC[C@@]3(O)[C@H]1C5 [Naloxone]
oral bioavailability (in words) ([1]; po): low

O=C1CC[C@@]2(O)[C@H]3Cc4ccc(O)c5c4[C@@]2(CCN3CC2CC2)[C@H]1O5 [Naltrexone]
Plasma protein binding: 21%
